Reference: the METLIN SMRT retention time set (Domingo-Almenara et al. 2019)

Assay: gradient 5% acetonitrile 3 min, to 50% in 2 min, to 85% in 15 min, held 3 min, 100 µL/min
Conditions: column: Zorbax Extend-C18 2.1 x 50 mm; eluents: water / acetonitrile, 0.1% formic acid
In short: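 Values are retention times taken from adduct peaks that software picked and an analyst inspected. The pure standards were run as mixtures of ~100 molecules on HPLC linked to a quadrupole time-of-flight mass spectrometer, in positive and negative ionization mode. A Zorbax Extend-C18 column (2.1 × 50 mm, 1.8 μm) was used at 100 μL/min with water and acetonitrile, each including 0.1% formic acid.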

| Compound | RP-LC retention time |
| --- | --- |
| O=C(NC(c1ccccc1)c1nnc(N2CCCCC2)o1)C1CCCC1 (stereo not drawn) | 836 s |
| c1ccc(-c2n[nH]c(CC3CCNC3)n2)cc1 (stereo not drawn) | 570 s |
| NC(N)=NC(=O)c1nc(Cl)c(N2CCCCCC2)nc1N | 758 s |
| CCNc1cc(N2CCCC(CCC(=O)N(C)Cc3cn(C)nc3C)C2)ncn1 (stereo not drawn) | 598 s |
| Cn1nc(C(=O)N2CCCC2)c2c1CCN(C(=O)CCC(=O)NCCCN1CCCC1)C2 | 574 s |
| CCN(CC)C(=O)N1CC(n2cc(C(=O)N(C)CCOC)nn2)C1 | 624 s |
| COc1ccc(C(=O)N2CCC(c3noc(-c4ccncc4)n3)C2)cn1 (stereo not drawn) | 673 s |
| Cc1cccc(C)c1-n1ccn(Cc2nc(-c3ccc(F)c(Cl)c3)no2)c(=O)c1=O | 976 s |
| O=C(CN1CCCCCC1)N1CCC2(CCC2O)CC1 (stereo not drawn) | 555 s |
| CC1CCN(Cc2nc(-c3ccc(N4CCSCC4)nc3)no2)CC1 | 672 s |
| Cc1cc(C)n2c(Nc3ccc(Cl)cc3)c(-c3ccc(O)cc3)nc2n1 | 707 s |
| CCCNC(=O)C1CC(=O)N(c2ccc3c(c2)CCN3C(C)=O)C1 (stereo not drawn) | 621 s |
| COc1cc(NC(=O)C2CCCN2S(=O)(=O)c2ccc3c(c2)CC(C)N3C(C)=O)cc(OC)c1 (stereo not drawn) | 844 s |
| Cc1cc(Cl)ccc1NC(=O)N1CCC(n2cnnc2C2CC2)C1 (stereo not drawn) | 661 s |
| COc1nccnc1NC1CCN(C(=O)c2cccn2C)CC1 | 570 s |
| Cc1nn(CC(=O)N2CCC3(CC2)OCCO3)c(=O)c2nc(-c3ccccc3)sc12 | 970 s |
| CC1CCN(S(=O)(=O)c2ccc(-c3nnc(C(=O)NCCCN4CCCC4=O)o3)cc2)CC1 | 792 s |
| CC1=C(c2ccc(F)cc2)S(=O)(=O)N=C1N1CCC(NC(=O)C2CCCO2)CC1 (stereo not drawn) | 716 s |
| O=C(c1ccco1)N1CCC(OCc2nc(C3CC3)no2)CC1 | 732 s |
| CCn1c(=O)c(C(=O)N2CCN(C3CCCCC3)CC2)nc2cccnc21 | 520 s |

| Compound | RP-LC retention time |
| --- | --- |
| COCCCNC(=O)CN1C(=O)C2CCCCN2c2ccc(C(=O)N3CCCCC3)cc21 (stereo not drawn) | 729 s |
| CCOc1cc(C(=O)Nc2nc(-c3ccc4c(c3)NC(=O)CO4)c(C)s2)cc(OCC)c1OCC | 1140 s |
| O=C(c1cn2c(n1)COCC2)N1CCN(c2ccc(Cl)cc2)CC1 | 699 s |
| CCc1[nH]nc(S(=O)(=O)N2CCN(c3ccccn3)CC2)c1C(=O)OC | 560 s |
| Cc1nnc2ccc(NC(=O)Nc3ccc(F)cc3)cn12 | 660 s |
| COc1ccc(NC(=O)c2c(C)oc3nc(C)nc(N4CCOCC4)c23)cc1Cl | 788 s |
| Cc1cccc(C2CN(C)CCc3c2cc(O)c(O)c3Cl)c1 (stereo not drawn) | 648 s |
| Cc1cccnc1NC(=O)c1c[nH]c2c(C(F)(F)F)cccc2c1=O | 573 s |
| COC(=O)c1c(NC(C)c2ccc(F)cc2)c2cccc(Cl)c2[nH]c1=O (stereo not drawn) | 858 s |
| Cn1c(SCCC(=O)O)nnc1-c1cccnc1 | 515 s |
| Cc1nccn1Cc1nc(-c2ccc(F)cc2)no1 | 614 s |
| COc1ccc(N2C(=O)CSC2c2ccc(Cl)cc2)cc1 (stereo not drawn) | 877 s |
| CCOc1ccc(-c2nc(C3CC(=O)N(c4ccc(F)c(Cl)c4)C3)no2)cc1 (stereo not drawn) | 1170 s |
| CCS(=O)(=O)c1nc2ccc(NS(=O)(=O)c3ccc(F)cc3Cl)cc2s1 | 890 s |
| Cc1ccc(-c2nc(NC(=O)c3cncc(Br)c3)sc2C)cc1 | 1180 s |
| CCCN1CCC(c2cccc(S(C)(=O)=O)c2)CC1 | 600 s |
| CCc1nc(-c2csc(S(=O)(=O)N3CCCC(C(=O)Nc4ccc(C)cc4C)C3)c2)no1 (stereo not drawn) | 1070 s |
| CCOC(=O)c1noc2ncnc(NCc3ccc(OC)cc3)c12 | 938 s |
| O=C(CN1C(=O)CCS(=O)(=O)c2ccccc21)Nc1ccc(Cl)cc1 | 797 s |
| CCn1cc(-c2ccc(F)cc2)cc1C(=O)N1CCOCC1 | 869 s |

| Compound | RP-LC retention time |
| --- | --- |
| CC(=O)c1ccc(NC(=O)Cn2cnc3nc4c(cc3c2=O)CC(C)CC4)cc1 (stereo not drawn) | 738 s |
| Cc1nc(NC(=O)Cn2nc(-n3cccn3)ccc2=O)sc1C(=O)N(C)C | 585 s |
| CCN1C(=O)c2cc(C(=O)Nc3cccc(F)c3)nn2CC1(C)C(=O)NC1CCCC1 (stereo not drawn) | 834 s |
| CC1(C)O[C@@H]2C[C@H]3[C@@H]4CCC5=CC(=O)C=C[C@]5(C)[C@H]4[C@@H](O)C[C@]3(C)[C@]2(C(=O)CO)O1 | 814 s |
| Cc1cc(C)c(NC(=O)Cn2cnc3nc(N4CCCC(C(=O)NC(C)C)C4)sc3c2=O)c(C)c1 (stereo not drawn) | 728 s |
| COc1cccc(C2Cn3nnc(-c4nc(-c5ccc(OC(F)(F)F)cc5)no4)c3CO2)c1 (stereo not drawn) | 1310 s |
| Cc1ccc2nc3c(c(C(=O)NC(C)C)c2c1)CCCC3 | 618 s |
| COc1ccc(C)cc1NC(=O)N1CCC2(CC1)NC(=O)c1ccc(Cl)cc1N2 | 806 s |
| COc1ccc(Nc2ncnc3[nH]ncc23)c(OC)c1 | 568 s |
| Cc1nnc([C@@H]2CC(F)(F)CN2C(=O)c2ccc3ccccc3n2)o1 | 756 s |
| COCCn1cc(CCNC(=O)Nc2ccc(F)c(Cl)c2)c2cccnc21 | 783 s |
| CCS(=O)(=O)c1ccc(-c2ccc(NC(=O)c3ccc(Br)o3)cc2)nn1 | 765 s |
| CCC(C)NC(=O)NC1CCN(C2=NS(=O)(=O)C(c3ccc(Cl)cc3)=C2C)CC1 (stereo not drawn) | 883 s |
| COc1ccc2[nH]cc(CCNC(=O)c3ccccc3NC(=O)C3=C(C)OCCS3)c2c1 | 938 s |
| O=C(c1cc(S(=O)(=O)N2CCCC(C(=O)N3CCCCC3)C2)c[nH]1)N1CCCC1 (stereo not drawn) | 716 s |
| CCn1ccc2sc(C)c(C(=O)NCc3ccc(F)cc3Cl)c2c1=O | 916 s |
| CN(C)CCCNC(=O)C1CCCN(c2cnc3nccnc3c2)C1 (stereo not drawn) | 562 s |
| COC(=O)C1=CN(c2ccc(OC)cc2)c2ccccc2S1(=O)=O | 819 s |

Second part, the molecule after the results:

| RP-LC retention time | Compound |
| --- | --- |
| 1140 s | CCn1c(C(=O)NCc2ccc(F)cc2)cc2sc(Cl)cc21 |
| 693 s | COc1ccc(OC)c(CNC(=O)CCc2c(-c3ccc(Br)cc3)nc3ccccn23)c1 |
| 1060 s | CC(C)N(Cc1ccccc1)C(=O)CN1C(=O)CCc2cc(S(=O)(=O)N3CCCCC3C)ccc21 (stereo not drawn) |
| 1240 s | Cc1cc(C)cc(NC(=O)Cn2nc(N3CCCC(C)C3)c3ccccc3c2=O)c1 (stereo not drawn) |
| 722 s | Cc1nc2ccn(Cc3ccco3)c(=O)c2cc1C(=O)NCc1ccc2c(c1)OCO2 |
| 848 s | O=C(Nc1ccc(Cl)cc1)N1CCC(n2cnc3cc(F)ccc3c2=O)CC1 |
| 1260 s | COc1ccc2c(c1)C(C(=O)N(Cc1ccc(N(C)C)cc1)c1ccc(C(C)C)cc1)CCC2 (stereo not drawn) |
| 857 s | CCOC(=O)Cc1ccc(NC(=O)NC(C)C(=O)N2CCc3ccccc32)cc1 (stereo not drawn) |
| 858 s | COCc1cc2nn(CC(=O)Nc3ccc(C)cc3F)c(=O)n2c(-c2ccccc2)n1 |
| 709 s | CC(=O)Nc1c(C)nn(-c2ccccc2)c1N1CCC(C(=O)Nc2cccc(C(C)=O)c2)CC1 |
| 883 s | Cc1ccc(-n2c(=O)c3c(cc(C)n3C)n(CC(=O)Nc3cccc(Br)c3)c2=O)cc1 |
| 601 s | Cn1c(CNC(=O)CCc2cc3ccccc3[nH]c2=O)nc2ccccc21 |
| 941 s | CCOc1ccccc1NS(=O)(=O)c1ccc2c(c1)C(=O)N(C)c1ncccc1O2 |
| 848 s | O=C(CCc1conc1-c1ccc(F)cc1)NCc1ccc2c(c1)OCO2 |
| 655 s | Cc1ccc(Cn2c(CN3CCC(C(=O)NCc4ccccn4)CC3)cc3ccccc32)cc1 |
| 610 s | COc1ccc(CNC(=O)CN2CCc3[nH]c4c(OC)ccc(Cl)c4c(=O)c3C2)cc1 |
| 681 s | O=C(O)Cc1sc(NCc2ccccc2)nc1-c1ccccc1 |
| 899 s | O=C(c1cc2ccccc2[nH]1)N1CCCn2nc(-c3cccs3)cc2C1 |
| 737 s | CCCc1noc(-c2cccnc2N2CCCN(Cc3ccccc3Cl)CC2)n1 |
| 804 s | COc1ccccc1NC(=O)Cn1c(=O)c2cc(-c3ccco3)nn2c2ncccc21 |
| 914 s | O=C(Cn1nc2c(Sc3cccc(F)c3)nccn2c1=O)N1CCN(c2ccccc2)CC1 |
| 686 s | O=C(NCc1cccnc1-c1ccccc1)c1ccc(Br)cc1 |
| 687 s | O=C(NCc1ccco1)N1CCc2nn(Cc3ccccc3)c(=O)n2CC1 |
| 1240 s | Cc1ccc(-c2noc(C3CCCN3S(=O)(=O)c3ccc(F)c(Cl)c3)n2)cc1 (stereo not drawn) |
| 642 s | Cc1[nH]c2ccc(-c3nnc(SCC(=O)NCc4nc5ccccc5[nH]4)o3)cc2c1C |
| 667 s | CCC(=O)N1CCc2cc(-c3ccc(C(=O)N4CCC(C(N)=O)CC4)cc3)ccc21 |
| 848 s | COc1ccc(-c2ccnc3nc(-c4ccccc4)nn23)cc1OC |
| 1190 s | CC(=O)c1cccc(NC(=O)COc2ccccc2-c2nnc(-c3ccccc3)o2)c1 |
| 1340 s | Cc1ccc(NC(=O)c2c(O)c3cccnc3n(-c3ccc(F)cc3)c2=O)cc1F |
| 1310 s | COc1ccc(N2CCN(c3cc(SCC(=O)NC(C)CCc4ccccc4)ncn3)CC2)cc1 (stereo not drawn) |
